Patent US20260262643A1, “HERBICIDAL BENZOXAZINES” (FMC CORPORATION, priority 2022, published 2026)

Columns and labels:
barnyardgrass [1] = assay: Test C preemergence; assay type: in vivo, Echinochloa crusgalli
How it was run: (§1)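 Seeds sown in loam soil–sand blend received a directed preemergence soil spray of test chemical in non-phytotoxic solvent with surfactant; postemergence plants (2–10 cm, one- to two-leaf stage) were sprayed with the same formulation. Greenhouse-held 10 days, then visually rated for injury versus untreated controls, 0 (no effect) to 100 (complete control).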

blackgrass [2] = assay: Test C preemergence; assay type: in vivo, Alopecurus myosuroides
How it was run: as §1

corn [3] = assay: Test C preemergence; assay type: in vivo, Zea mays
How it was run: as §1

green foxtail [4] = assay: Test C preemergence; assay type: in vivo, Setaria viridis
How it was run: as §1

kochia [5] = assay: Test C preemergence; assay type: in vivo, Bassia scoparia
How it was run: as §1

oat, wild [6] = assay: Test C preemergence; assay type: in vivo, Avena fatua
How it was run: as §1

pigweed, palmer [7] = assay: Test C preemergence; assay type: in vivo, Amaranthus palmeri
How it was run: as §1

ragweed [8] = assay: Test C preemergence; assay type: in vivo, Ambrosia artemisiifolia
How it was run: as §1

ryegrass, Italian [9] = assay: Test C preemergence; assay type: in vivo, Lolium multiflorum
How it was run: as §1

soybean [10] = assay: Test C preemergence; assay type: in vivo, Glycine max
How it was run: as §1

wheat [11] = assay: Test C preemergence; assay type: in vivo, Triticum aestivum
How it was run: as §1

barnyardgrass [12] = assay: Test C postemergence; assay type: in vivo, Echinochloa crusgalli; settings: 10 days, 0 to 100 scale (0 no effect, 100 complete control)
How it was run: as §1

blackgrass [13] = assay: Test C postemergence; assay type: in vivo, Alopecurus myosuroides; settings: 10 days, 0 to 100 scale (0 no effect, 100 complete control)
How it was run: as §1

corn [14] = assay: Test C postemergence; assay type: in vivo, Zea mays; settings: 10 days, 0 to 100 scale (0 no effect, 100 complete control)
How it was run: as §1

green foxtail [15] = assay: Test C postemergence; assay type: in vivo, Setaria viridis; settings: 10 days, 0 to 100 scale (0 no effect, 100 complete control)
How it was run: as §1

kochia [16] = assay: Test C postemergence; assay type: in vivo, Bassia scoparia; settings: 10 days, 0 to 100 scale (0 no effect, 100 complete control)
How it was run: as §1

oat, wild [17] = assay: Test C postemergence; assay type: in vivo, Avena fatua; settings: 10 days, 0 to 100 scale (0 no effect, 100 complete control)
How it was run: as §1

pigweed, palmer [18] = assay: Test C postemergence; assay type: in vivo, Amaranthus palmeri; settings: 10 days, 0 to 100 scale (0 no effect, 100 complete control)
How it was run: as §1

ragweed [19] = assay: Test C postemergence; assay type: in vivo, Ambrosia artemisiifolia; settings: 10 days, 0 to 100 scale (0 no effect, 100 complete control)
How it was run: as §1

ryegrass, Italian [20] = assay: Test C postemergence; assay type: in vivo, Lolium multiflorum; settings: 10 days, 0 to 100 scale (0 no effect, 100 complete control)
How it was run: as §1

soybean [21] = assay: Test C postemergence; assay type: in vivo, Glycine max; settings: 10 days, 0 to 100 scale (0 no effect, 100 complete control)
How it was run: as §1

wheat [22] = assay: Test C postemergence; assay type: in vivo, Triticum aestivum; settings: 10 days, 0 to 100 scale (0 no effect, 100 complete control)
How it was run: as §1

galium = assay: Test C postemergence; assay type: in vivo, Galium aparine; settings: 10 days, 0 to 100 scale (0 no effect, 100 complete control)
How it was run: as §1

horseweed = assay: Test C postemergence; assay type: in vivo, Erigeron canadensis; settings: 10 days, 0 to 100 scale (0 no effect, 100 complete control)
How it was run: as §1

barnyardgrass [23] = assay: Test D flooded paddy test; assay type: in vivo, Echinochloa crus-galli; settings: 250 g ai/ha, applied to paddy water, visual rating after 13 to 14 days, scale 0 to 100 (0 no effect, 100 complete control)
How it was run: (§2)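 Rating scale 0–100 (0 no effect, 100 complete control), visual, versus controls. Readout at 13–14 days after in-water application to 2-leaf plants in pots flooded 3 cm deep.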

ducksalad = assay: Test D flooded paddy test; assay type: in vivo, Heteranthera limosa; settings: 250 g ai/ha, applied to paddy water, visual rating after 13 to 14 days, scale 0 to 100 (0 no effect, 100 complete control)
How it was run: as §2

rice = assay: Test D flooded paddy test; assay type: in vivo, Oryza sativa; settings: 250 g ai/ha, applied to paddy water, visual rating after 13 to 14 days, scale 0 to 100 (0 no effect, 100 complete control)
How it was run: as §2

sedge, umbrella = assay: Test D flooded paddy test; assay type: in vivo, Cyperus difformis; settings: 250 g ai/ha, applied to paddy water, visual rating after 13 to 14 days, scale 0 to 100 (0 no effect, 100 complete control)
How it was run: as §2

[24] = 500 g ai/ha, preemergence, 0 to 100 scale (0 no effect, 100 complete control)
[25] = Preemergence, 125 g ai/ha, 0 to 100 scale, 0 no effect, 100 complete control

Q: Which results are given for `Cc1cccc2c1OC(C(F)(F)F)CN2C(=O)c1cccc(-n2cnc(C(C)(C)C)n2)c1` (stereo not shown) [Compound 347]?
A: Barnyardgrass plant response rating (barnyardgrass [1]; [24]): 100; Plant response rating, Barnyardgrass (barnyardgrass [1]; [25]): 20; Blackgrass plant response rating (blackgrass [2]; [24]): 30; Plant response rating, Blackgrass (blackgrass [2]; [25]): 10; Corn plant response rating (corn [3]; [24]): 10; Plant response rating, Corn (corn [3]; [25]): 0; Foxtail, Green plant response rating (green foxtail [4]; [24]): 100; Plant response rating, Foxtail, Green (green foxtail [4]; [25]): 90; Kochia plant response rating (kochia [5]; [24]): 60; Plant response rating, Kochia (kochia [5]; [25]): 50; Oat, Wild plant response rating (oat, wild [6]; [24]): 70; Plant response rating, Oat, Wild (oat, wild [6]; [25]): 60; Pigweed, Palmer plant response rating (pigweed, palmer [7]; [24]): 70; Plant response rating, Pigweed, Palmer (pigweed, palmer [7]; [25]): 80; Ragweed plant response rating (ragweed [8]; [24]): 30; Plant response rating, Ragweed (ragweed [8]; [25]): 0; Ryegrass, Italian plant response rating (ryegrass, Italian [9]; [24]): 100; Plant response rating, Ryegrass, Italian (ryegrass, Italian [9]; [25]): 100; Soybean plant response rating (soybean [10]; [24]): 30; Plant response rating, Soybean (soybean [10]; [25]): 30; Wheat plant response rating (wheat [11]; [24]): 40; Plant response rating, Wheat (wheat [11]; [25]): 20; Plant response rating, Barnyardgrass (barnyardgrass [12]; 500 g ai/ha, postemergence): 20; Plant response rating, Barnyardgrass (barnyardgrass [12]; Postemergence, 125 g ai/ha): 10; Plant response rating, Blackgrass (blackgrass [13]; 500 g ai/ha, postemergence): 60; Plant response rating, Blackgrass (blackgrass [13]; Postemergence, 125 g ai/ha): 10; Plant response rating, Corn (corn [14]; 500 g ai/ha, postemergence): 10; Plant response rating, Corn (corn [14]; Postemergence, 125 g ai/ha): 10; Plant response rating, Foxtail, Green (green foxtail [15]; 500 g ai/ha, postemergence): 60; Plant response rating, Foxtail, Green (green foxtail [15]; Postemergence, 125 g ai/ha): 20; Plant response rating, Kochia (kochia [16]; 500 g ai/ha, postemergence): 70; Plant response rating, Kochia (kochia [16]; Postemergence, 125 g ai/ha): 50; Plant response rating, Oat, Wild (oat, wild [17]; 500 g ai/ha, postemergence): 10; Plant response rating, Oat, Wild (oat, wild [17]; Postemergence, 125 g ai/ha): 10; Plant response rating, Pigweed, Palmer (pigweed, palmer [18]; 500 g ai/ha, postemergence): 80; Plant response rating, Pigweed, Palmer (pigweed, palmer [18]; Postemergence, 125 g ai/ha): 80; Plant response rating, Ragweed (ragweed [19]; 500 g ai/ha, postemergence): 50; Plant response rating, Ragweed (ragweed [19]; Postemergence, 125 g ai/ha): 20; Plant response rating, Ryegrass, Italian (ryegrass, Italian [20]; 500 g ai/ha, postemergence): 30; Plant response rating, Ryegrass, Italian (ryegrass, Italian [20]; Postemergence, 125 g ai/ha): 20; Plant response rating, Soybean (soybean [21]; 500 g ai/ha, postemergence): 100; Plant response rating, Soybean (soybean [21]; Postemergence, 125 g ai/ha): 100; Plant response rating, Wheat (wheat [22]; 500 g ai/ha, postemergence): 10; Plant response rating, Wheat (wheat [22]; Postemergence, 125 g ai/ha): 10; Plant response rating, Galium (galium; 500 g ai/ha, postemergence): 80; Plant response rating, Galium (galium; Postemergence, 125 g ai/ha): 90; Plant response rating, Horseweed (horseweed; 500 g ai/ha, postemergence): 20; Plant response rating, Horseweed (horseweed; Postemergence, 125 g ai/ha): 0; Plant response rating, Barnyardgrass (Flood) (barnyardgrass [23]): 0; Plant response rating, Ducksalad (Flood) (ducksalad): 0; Plant response rating, Rice (Flood) (rice): 0; Plant response rating, Sedge, Umbrella (Flood) (sedge, umbrella): 0
